Measured values published in patent US20230230698A1, “ANTIMICROBIAL CHOICE ALGORITHM FOR URINARY TRACT INFECTIONS” (Northwestern University, priority 2020, published 2023).
Read-outs that look alike come from different tables or passages of the source.

Experiments:
[1] = test system: uropathogen; assay: Urine culture antimicrobial susceptibility (Vitek 2), outpatients with complicated UTI; format: cell-based; conditions: for Overall prevalence of resistance: complicated UTI outpatients, 2012-2018, 2,286 cultures (>=10^3 CFU/mL), resistant or intermediate susceptibility; for proportion of patients resistant: complicated UTI, 2017-2018 testing cohort, 646 patients, Chicago ZIP code
Excerpt: Materials and Methods: We performed a retrospective, single-center, cross-sectional study of 2,286 outpatients with a diagnosed complicated UTI from 2012-2018. For patients with confirmed UTI (≥10^3 CFU/mL) with antimicrobial sensitivities, univariate analyses and multivariable regression models were used to determine odds ratios for predicting resistance to SXT, NIT, CIP, CF-1, and CF-3 for the 2012-2016 data. Antimicrobial choice algorithms were created using 2012-2016 results and tested on 2017-2018 data.
This study was approved and performed in accordance with the Northwestern Medicine Institutional Review Board (STU00207763). This is a retrospective cross-sectional study of patients aged 18 or older that submitted urine cultures as outpatients from 2012 to 2018 at any Northwestern Medicine site, which encompasses the greater Chicago area. Data were obtained from the Northwestern Medicine Enterprise Data Warehouse, which is a data integration warehouse designed for research and clinical operations. […] Patients and cultures were included only if they were linked to any ICD 9 or 10 diagnosis code in the previous two years that would have been associated with a complicated UTI^6. Patients were included exactly once based on their most recent culture, and all prior culture data were used as covariates. […] Cultures were included in analysis if positive (identified uropathogen≥10^3 colony forming units per milliliter (CFU/mL)) and antimicrobial susceptibilities were reported for the dominant species. All specimen collection and testing were done uniformly in accordance with Northwestern Medicine Guidelines. Isolation, colony count and identification testing were performed using Vitek 2 cards (bioMérieux).
For the 2012 to 2016 patients, outcomes of interest were uropathogen resistance (defined as resistant or intermediate susceptibility) to trimethoprim-sulfamethoxazole (SXT), ciprofloxacin (CIP), nitrofurantoin (NIT), first-generation cephalosporin (CF-1) and third-generation cephalosporin (CF-3). The resistance prevalence was also stratified by Chicago ZIP code for each antimicrobial.
The algorithms developed using the above-described cohort were then tested on the 2017-2018 cohort. […] Also, the predictive value of time between cultures and uropathogen concurrence between cultures was examined in this cohort^10,17. All analyses were done using R (version 3.5.2).

[2] = test system: uropathogen; assay: Urine culture antimicrobial susceptibility (Vitek 2), women outpatients with uncomplicated UTI; format: cell-based; conditions: for proportion with culture susceptible, theoretical scenario of all patients receiving the drug / proportion with culture susceptible if everyone was prescribed the drug: 2018 cohort; for proportion with culture susceptible, theoretical scenario of all patients receiving the drug: 258 patients with prior microbiologic data; for proportion with culture susceptible, theoretical scenario of all patients being prescribed the drug: 2018 cohort, 1,169 patients without prior microbiologic data; for proportion with culture susceptible if everyone was prescribed the drug: all 1,427 patients; for Overall prevalence of resistance / proportion of patients resistant: uncomplicated UTI; for Overall prevalence of resistance: 2011-2017 cohort, 9,455 positive cultures (>=10^3 CFU/mL), resistant or intermediate susceptibility; for proportion of patients resistant: 2018 testing cohort, 1,427 women, Chicago ZIP code
Excerpt: Data were obtained from the Northwestern Medicine Enterprise Data Warehouse, which is a data integration warehouse designed for research and clinical operations. […] Cultures were included in analysis if positive (identified uropathogen≥10^3 colony forming units per milliliter (CFU/mL)) and antimicrobial susceptibilities reported for the dominant species. The colony count cutoff of ≥10^3 CFU/mL was used as it has been noted that low thresholds have appropriate diagnostic value for women with symptoms of a UTI.^5, 17, 18 The Northwestern Medicine Institutional Review Board approved this study (STU00207763).
All specimen collection and testing were done uniformly in accordance with Northwestern Medicine Guidelines. Isolation, colony count and identification testing were performed using Vitek 2 cards (bioMérieux).
For the 2011-2017 patients, outcomes of interest were uropathogen resistance (defined as resistant or intermediate susceptibility) to SXT, NIT and CIP. Covariates were patient demographics (age, race and patient's place of residence (ZIP code)) antimicrobial prescriptions within the past two years, diagnosis codes associated with current and past encounters, past urine culture results and department to which they presented. Risk factors were compared between patients who had resistant and sensitive cultures using two-sample t-tests (continuous variables) and chi-squared tests (categorical variables). Multivariate logistic regression models were used to investigate the association between risk factors and resistant cultures. Odds ratios (OR) were derived from these models to determine the probability of having a resistant culture with those factors.
The algorithms developed using the above-described cohort were then tested on the 2018 cohort. […] All analyses were done using R (version 3.5.2).

[3] = test system: uropathogen; conditions: 2018, both inpatient and outpatient cultures; cited from earlier work
[4] = test system: uropathogen; assay: Resistance in community acquired UTIs, uncomplicated and complicated combined; format: cell-based; conditions: 2018
Excerpt: The prevalence of resistance for patients with complicated UTIs was compared to data from our previous publication for uncomplicated UTIs and available hospital data^17. The prevalence of resistance by ZIP code for the complicated UTI population was then compared between each antibiotic and to the distribution of prevalence by ZIP code for the uncomplicated population for the previous study, for CIP, SXT and NIT (the three antimicrobials evaluated in the previous study)^17.

| Compound | Overall prevalence of resistance [1] | proportion of patients resistant [1] | proportion with culture susceptible, theoretical scenario of all patients receiving the drug [2] | proportion with culture susceptible, theoretical scenario of all patients being prescribed the drug [2] | proportion with culture susceptible if everyone was prescribed the drug [2] | Overall prevalence of resistance [2] | proportion of patients resistant [2] | Overall prevalence of resistance [3] | resistance, complicated UTI ([1]; 2018, community acquired) | resistance for community acquired UTIs, both uncomplicated and complicated [4] |
| --- | --- | --- | --- | --- | --- | --- | --- | --- | --- | --- |
| trimethoprim-sulfamethoxazole [SXT] | 25.5% | 25.9% | 72.1% | 79.3% | 78.0% | 19.4% | 22.0% |  |  |  |
| O=C1CN(/N=C/c2ccc([N+](=O)[O-])o2)C(=O)N1 [NIT, nitrofurantoin] | 18.9% | 18.1% | 93.8% | 89.2% | 90.0% | 12.1% | 10.0% |  |  |  |
| O=C(O)c1cn(C2CC2)c2cc(N3CCNCC3)c(F)cc2c1=O [CIP, ciprofloxacin] | 19.4% | 18.4% |  |  |  | 10.3% | 10.7% | 25% | 16.2% | 11.2% |
